Data published in ChEMBL document CHEMBL1125011, “Potential antimitotic agents. Synthesis of some ethyl benzopyrazin-7-ylcarbamates, ethyl pyrido[3,4-b]pyrazin-7-ylcarbamates, and ethyl pyrido[3,4-e]-as-triazin-7-ylcarbamates” (J Med Chem, 1990).

Legend:
L1210 [1] = assay: Concentration required to inhibit 50% proliferation of cultured lymphoid leukemia L1210 cells was measured; type: functional, cell-based; details: Mus musculus
L1210 [2] = assay: (§1) Concentration that causes a mitotic index of 0.5 for cultured lymphoid leukemia L1210 cells was determined; type: functional, Mus musculus
[3] = as §1; type: functional, Mus musculus

Structure (SMILES)	IC50 (L1210 [1])	MI0.5 (L1210 [2])	MI0.5 [3]
CCOC(=O)c1cc(N)c2c(c1)NCC(c1ccccc1)=N2	> 100 µM	>10 µM	–
CCOC(=O)Nc1cc2nc(O)c(-c3ccccc3)nc2c(N)n1	0.042 µM	0.022 µM	–
CCOC(=O)Nc1cc2nnc(-c3ccccc3)nc2c(N)n1	> 10 µM	–	–
COC(=O)Nc1cc(N)c2nc(-c3ccccc3)c(O)nc2c1	0.75 µM	–	1.9 µM
COC(=O)Nc1cc(N)c2nc(-c3ccccc3)cnc2c1	> 100 µM	–	–
CCOC(=O)Nc1cc2ncc(-c3ccccc3)nc2c(N)n1	0.3 µM	–	–
COC(=O)Nc1cc(N)c2c(c1)NCC(c1ccccc1)=N2	24 µM	–	–
CCOC(=O)c1cc(N)c2nc(-c3ccccc3)cnc2c1	> 100 µM	>10 µM	–
CCOC(=O)Nc1cc2c(c(N)n1)NC(c1ccccc1)=NN2	> 10 µM	–	–
CCOC(=O)Nc1cc2nc(N)c(-c3ccccc3)nc2c(N)n1	> 30 µM	–	–
CCOC(=O)Nc1cc2c(c(N)n1)N=C(c1ccccc1)CN2	–	–	0.0028 µM
